Settings: Liquid

CCO [ethanol]
Settings	vapor or sublimation pressure [kPa]
321 K	26.41
324 K	30.53
327 K	35.19
330 K	40.44
333 K	46.34
336 K	52.96
339 K	60.35
342 K	68.6
345 K	77.77
348 K	87.96
351 K	99.24
354 K	111.7
357 K	125.44
359 K	135.37

CCOC(C)=O [ethyl acetate]
Settings	vapor or sublimation pressure [kPa]
310 K	21.72
313 K	24.78
316 K	28.18
319 K	31.95
322 K	36.12
325 K	40.73
328 K	45.8
331 K	51.36
334 K	57.46
337 K	64.13
340 K	71.4
343 K	79.32
346 K	87.93
349 K	97.26
352 K	107.36
355 K	118.27
358 K	130.03
359 K	134.15

Source: the NIST ThermoML archive (doi:10.1021/je700322p)
